The subject of one data set is S. mansoni. As to the kind of experiment: Murine model of S. mansoni infection: worm burdens recovered by perfusion. It counts as in vivo, Schistosoma mansoni. Conditions: mice; for reduction in female worm burden / reduction in male worm burden: 42 dpi.
The conditions of data set [1]: oral 60 mg/BID over 24 weeks; ref Kim et al., 2017; cited from earlier work.

The structures appear in SMILES notation. Several values for one entry are separate records, joined by “and”; a condition that tells them apart may be missing. Equal entries are not always repeated. Entries after “also recorded” stand apart in the source; their conditions may differ.

For the compound `O=C(C1CCCCC1)N1CC(=O)N2CCc3ccccc3C2C1` (stereo not shown) [PZQ, praziquantel], the “efficacy against 21-day-old juvenile parasites” value with S. mansoni (100 mg/kg PO QDx4 from 21 dpi, 100 mg/kg) was “ineffective; also recorded: essentially inactive”. Moreover, the “reduction in female worm burden” value in the data set with S. mansoni (single oral 200 mg/kg) is listed as 97%; in the data set with S. mansoni (single oral 400 mg/kg) it was 100%. The “reduction in male worm burden” value in the data set on S. mansoni (single oral 200 mg/kg) was 78%; in the data set with S. mansoni (single oral 400 mg/kg, 400 mg/kg) it was 100% and 97%. Moreover, in the data set with S. mansoni (single oral doses), the “worm kill, juvenile 21 day-old parasites” value is reported as “zero kill”.
For `Cc1c(-c2cnccn2)ssc1=S` [Oltipraz], in data set [1], the tolerability entry is reported as “well-tolerated”.

(Values after publication PMC6287543 (International Journal for Parasitology: Drugs and Drug …, 2018).)
